One experiment addresses Cdk5/p25 (Homo sapiens, UniProt Q00535). The experiment in a line: Cyclin-Dependent Kinase 5 High Throughput Screening (cdk5-HTS) Assay. Format: biochemical. Particulars: high throughput screen. How it is done: Cyclin-Dependent Kinase 5 High Throughput Screening (cdk5-HTS) Assay
Enzyme assays for IC50 determinations were performed in 96-Pierce Reacti-Bind™ White Opaque Glutatione Coated Plates (Cat. No. 15240B).
The total volume was 0.100 mL containing a final concentration of 50 mM TRIS (tris[hydroxymethyl]aminomethane) at pH 7.4, 50 mM NaCl, 10 mM MgCl2, 5 mM dithiothreitol, 20 μM ATP containing 16 μCi/mL of Redivue[y33P]ATP (Amersham Pharmacia Biotech Cat. No. AH9968), 1.0 μg/mL Cdk5/p25, 20 μg/mL GST-RbCOOH, and appropriate dilutions of a compound of the present invention. The reaction was started by adding[^33P]ATP, and the plate was shaken for 30 seconds, then incubated at room temperature for 30 minutes. The reaction was terminated by addition of 0.05 mL of 120 mM EDTA. The plate was kept at room temperature for 45 minutes to allow substrate to bind to the walls of the plate. The wells were then washed three times with 0.2 mL of 1×PBS. Once thoroughly dry, 0.140 mL of MicroScint™2O (Packard Bioscience Cat. No. 87-9081) cocktail was added to all wells. The incorporation of ^33P was determined with a beta plate counter (Packard Topcount).

The next experiment has as its target cdk2/cyclinE (Homo sapiens, UniProt P24941). Put plainly: Cyclin-Dependent Kinase Assay cdk2/cyclinE. Particulars: cdk2/E IC50.
Another experiment deals with cdc2/cyclinB (Homo sapiens, UniProt P06493). Put plainly: Cyclin-Dependent Kinase Assay cdc2/cyclinB.
The target in a further experiment is cdk4/D (Homo sapiens, UniProt P11802). Put plainly: Cyclin-Dependent Kinase 4 (cdk4) Assay. Format: biochemical. Particulars: read-out: cdk4/D IC50. How it is done:
A typical assay, for instance, measures inhibitory activity against the cyclin D dependent kinase 4 enzyme (cdk4/D). […] The cdk4 assay was carried out as follows.
Cyclin-Dependent Kinase 4 (cdk4) Assay
All components except the ATP were added to the wells, and the plate was placed on a plate mixer for 2 minutes. The reaction was started by adding [^32P]ATP and the plate was incubated at 25° C. for 15 minutes. The reaction was terminated by addition of 0.1 mL of 20% trichloroacetic acid (TCA). The plate was kept at 4° C. for at least 1 hour to allow the substrate to precipitate. The wells were then washed five times with 0.2 mL of 10% TCA and ^32P incorporation was determined with a beta plate counter (Wallac Inc., Gaithersburg, Md.).

Another experiment addresses cdk2/cyclinA (Homo sapiens, UniProt P24941). Put plainly: Cyclin-Dependent Kinase Assay cdk2/cyclinA. Particulars: cdk2/A IC50.

cdk4/D, sequence (P11802 whole entry): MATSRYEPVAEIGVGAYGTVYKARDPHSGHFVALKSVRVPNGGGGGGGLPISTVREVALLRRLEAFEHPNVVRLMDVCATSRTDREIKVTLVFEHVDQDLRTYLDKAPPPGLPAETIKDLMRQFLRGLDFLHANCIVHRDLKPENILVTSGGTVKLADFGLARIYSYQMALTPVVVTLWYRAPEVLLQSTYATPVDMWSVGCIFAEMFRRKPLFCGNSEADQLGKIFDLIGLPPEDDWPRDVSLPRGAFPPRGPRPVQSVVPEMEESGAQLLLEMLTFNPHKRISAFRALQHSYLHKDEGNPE
cdk4/D, sequence (P24385 whole entry, further chain): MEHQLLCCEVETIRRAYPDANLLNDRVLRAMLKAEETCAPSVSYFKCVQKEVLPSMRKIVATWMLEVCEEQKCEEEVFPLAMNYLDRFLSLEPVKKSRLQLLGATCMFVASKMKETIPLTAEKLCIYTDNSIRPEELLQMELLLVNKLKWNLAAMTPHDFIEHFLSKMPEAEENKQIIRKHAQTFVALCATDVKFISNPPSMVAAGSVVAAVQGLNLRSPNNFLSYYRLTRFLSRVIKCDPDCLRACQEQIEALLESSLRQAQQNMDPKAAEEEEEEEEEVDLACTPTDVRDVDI
cdc2/cyclinB, sequence (P06493 whole entry): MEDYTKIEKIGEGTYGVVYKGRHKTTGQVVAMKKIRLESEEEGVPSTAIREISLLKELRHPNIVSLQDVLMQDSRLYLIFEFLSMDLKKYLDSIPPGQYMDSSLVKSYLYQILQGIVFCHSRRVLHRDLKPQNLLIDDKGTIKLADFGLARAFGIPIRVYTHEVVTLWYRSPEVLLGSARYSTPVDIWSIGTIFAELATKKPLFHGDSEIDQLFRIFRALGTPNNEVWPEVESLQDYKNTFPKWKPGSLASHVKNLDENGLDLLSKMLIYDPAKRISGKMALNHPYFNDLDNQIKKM
cdc2/cyclinB, sequence (P14635 whole entry, further chain): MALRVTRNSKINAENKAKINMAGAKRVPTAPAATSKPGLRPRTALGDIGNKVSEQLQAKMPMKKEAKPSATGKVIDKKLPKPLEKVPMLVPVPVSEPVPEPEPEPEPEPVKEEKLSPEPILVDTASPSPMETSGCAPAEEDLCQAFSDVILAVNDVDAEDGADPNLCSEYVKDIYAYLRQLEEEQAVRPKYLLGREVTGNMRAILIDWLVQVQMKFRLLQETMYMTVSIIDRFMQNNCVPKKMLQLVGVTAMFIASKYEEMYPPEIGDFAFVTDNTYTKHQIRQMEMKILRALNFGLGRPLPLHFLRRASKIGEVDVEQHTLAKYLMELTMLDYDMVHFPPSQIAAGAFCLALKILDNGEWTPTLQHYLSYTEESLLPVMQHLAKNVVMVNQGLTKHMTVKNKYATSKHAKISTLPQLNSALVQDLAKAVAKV

For the compound `CCn1c(=O)ccc2cnc(Nc3cc(OC)c(OC)c(OC)c3)nc21` [Example 292, 8-Ethyl-2-(3,4,5-trimethoxy-phenylamino)-8H-pyrido[2,3-d]pyrimidin-7-one], the IC50 was determined as 610 nM against Cdk5/p25, 1200 nM against cdk2/cyclinE and 860 nM against cdc2/cyclinB.

Consider `CCn1c(=O)ccc2cnc(Nc3cc([N+](=O)[O-])ccc3F)nc21` [Example 297, 8-Ethyl-2-(2-fluoro-5-nitro-phenylamino)-8H-pyrido[2,3-d]pyrimidin-7-one], for which the IC50 at cdk4/D came to 3300 nM; at Cdk5/p25, 870 nM; against cdk2/cyclinE, 2300 nM; against cdc2/cyclinB it was 3700 nM.

As to `CCn1c(=O)ccc2cnc(Nc3ccc(C#N)c(C#N)c3)nc21` [Example 298, 4-(8-Ethyl-7-oxo-7,8-dihydro-pyrido[2,3-d]pyrimidin-2-ylamino)-phthalonitrile], the IC50 at cdk4/D is 2000 nM; against Cdk5/p25, 430 nM; against cdk2/cyclinE, 1400 nM; on cdc2/cyclinB, 1900 nM.

Regarding `CCn1c(=O)ccc2cnc(Nc3ccc(C#N)c(NC(C)=O)c3)nc21` [Example 299, N-[2-Cyano-5-(8-ethyl-7-oxo-7,8-dihydro-pyrido[2,3-d]pyrimidin-2-ylamino)-phenyl]-acetamide], the IC50 was 1500 nM at cdk4/D, 1000 nM against Cdk5/p25, 2700 nM at cdk2/cyclinE and 2900 nM on cdc2/cyclinB.

Turning to `CCCn1c(=O)ccc2cnc(Nc3cc(C(F)(F)F)ccc3F)nc21` [Example 311, 2-(2-Fluoro-5-trifluoromethyl-phenylamino)-8-propyl-8H-pyrido[2,3-d]pyrimidin-7-one], the IC50 at cdk4/D came to 3000 nM; at Cdk5/p25, 1160 nM; at cdk2/cyclinE, 1460 nM; on cdc2/cyclinB, 1760 nM.

For `CCCn1c(=O)ccc2cnc(Nc3cc(C(F)(F)F)cc(C(F)(F)F)c3)nc21` [Example 315, 2-(3,5-Bis-trifluoromethyl-phenylamino)-8-propyl-8H-pyrido[2,3-d]pyrimidin-7-one], the values for the IC50 on Cdk5/p25, against cdk2/cyclinE and against cdc2/cyclinB were 2440 nM, 2580 nM and 2190 nM, respectively.

Consider `CCCn1c(=O)ccc2cnc(Nc3cc(OC)c(OC)c(OC)c3)nc21` [Example 334, 8-Propyl-2-(3,4,5-trimethoxy-phenylamino)-8H-pyrido[2,3-d]pyrimidin-7-one], for which the values for the IC50 on Cdk5/p25, at cdk2/cyclinE and on cdc2/cyclinB were 300 nM, 910 nM and 1300 nM, respectively.

As to `CCCn1c(=O)ccc2cnc(Nc3cc(OC)cc(C(F)(F)F)c3)nc21` [Example 342, 2-(3-Methoxy-5-trifluoromethyl-phenylamino)-8-propyl-8H-pyrido[2,3-d]pyrimidin-7-one], the IC50 at cdk4/D was 2200 nM; at Cdk5/p25, 1400 nM; on cdk2/cyclinE, 370 nM; against cdk2/cyclinA, 1800 nM.

With `CCCn1c(=O)ccc2cnc(Nc3ccc(Cl)c(Cl)c3)nc21` [Example 350, 2-(3,4-Dichloro-phenylamino)-8-propyl-8H-pyrido[2,3-d]pyrimidin-7-one], the figures for the IC50 against Cdk5/p25, against cdk2/cyclinE and on cdc2/cyclinB were 230 nM, 1200 nM and 3100 nM, respectively.

In the case of `CCCCn1c(=O)ccc2cnc(Nc3cc(C(F)(F)F)ccc3F)nc21` [Example 372, 8-Butyl-2-(2-fluoro-5-trifluoromethyl-phenylamino)-8H-pyrido[2,3-d]pyrimidin-7-one], the figures for the IC50 on Cdk5/p25, against cdk2/cyclinE and against cdc2/cyclinB were 2270 nM, 1030 nM and 2400 nM, respectively.

With `CCCCn1c(=O)ccc2cnc(Nc3cc(Cl)cc(Cl)c3)nc21` [Example 391, 8-Butyl-2-(3,5-dichloro-phenylamino)-8H-pyrido[2,3-d]pyrimidin-7-one], the IC50 on cdk4/D is 515 nM; against Cdk5/p25, 58 nM; against cdk2/cyclinE it was 65 nM; against cdc2/cyclinB, 165 nM.

Take `CC(C)n1c(=O)ccc2cnc(Nc3ccc(F)c(Cl)c3)nc21` [Example 419, 2-(3-Chloro-4-fluoro-phenylamino)-8-isopropyl-8H-pyrido[2,3-d]pyrimidin-7-one]: the IC50 came to 260 nM on cdk4/D, 33 nM against Cdk5/p25, 120 nM at cdk2/cyclinE and 140 nM against cdc2/cyclinB.

For `CC(C)n1c(=O)ccc2cnc(Nc3cc([N+](=O)[O-])ccc3F)nc21` [Example 420, 2-(2-Fluoro-5-nitro-phenylamino)-8-isopropyl-8H-pyrido[2,3-d]pyrimidin-7-one], the IC50 on cdk4/D stood at 1000 nM; at Cdk5/p25 it was 660 nM; against cdk2/cyclinE it was 1000 nM; against cdc2/cyclinB it was 1400 nM.

`CC(C)n1c(=O)ccc2cnc(Nc3cc(C(F)(F)F)ccc3F)nc21` [Example 428, 2-(2-Fluoro-5-trifluoromethyl-phenylamino)-8-isopropyl-8H-pyrido[2,3-d]pyrimidin-7-one]: the IC50 at cdk4/D turned out to be 2400 nM; against Cdk5/p25, 890 nM; against cdk2/cyclinE, 2400 nM; on cdc2/cyclinB, 2600 nM.

As to `CCC(C)n1c(=O)ccc2cnc(Nc3cc(C(F)(F)F)ccc3F)nc21` (centres unmarked) [Example 466, 8-sec-Butyl-2-(2-fluoro-5-trifluoromethyl-phenylamino)-8H-pyrido[2,3-d]pyrimidin-7-one], the IC50 at cdk4/D amounted to 1500 nM; against Cdk5/p25, 310 nM; against cdk2/cyclinE, 1400 nM; at cdc2/cyclinB it was 1300 nM.

Take `CCC(CC)n1c(=O)ccc2cnc(Nc3ccc(F)c(C)c3)nc21` [Example 503, 8-(1-Ethyl-propyl)-2-(4-fluoro-3-methyl-phenylamino)-8H-pyrido[2,3-d]pyrimidin-7-one]: the IC50 came out at 170 nM at cdk4/D, 13 nM against Cdk5/p25, 36 nM at cdk2/cyclinE and 79 nM at cdc2/cyclinB.

Consider `CCC(CC)n1c(=O)ccc2cnc(Nc3cc([N+](=O)[O-])ccc3F)nc21` [Example 504, 8-(1-Ethyl-propyl)-2-(2-fluoro-5-nitro-phenylamino)-8H-pyrido[2,3-d]pyrimidin-7-one], for which the IC50 on cdk4/D amounted to 210 nM; against Cdk5/p25, 370 nM; at cdk2/cyclinE, 380 nM; on cdc2/cyclinB, 520 nM.

Regarding `CCC(CC)n1c(=O)ccc2cnc(Nc3cc(F)c(NC(C)=O)c(Cl)c3)nc21` [Example 514, N-{2-Chloro4-[8-(1-ethyl-propyl)-7-oxo-7,8-dihydro-pyrido[2,3-d]pyrimidin-2-ylamino]-6-fluoro-phenyl}-acetamide], the IC50 on cdk4/D came out at 250 nM; at Cdk5/p25 it was 1100 nM; against cdk2/cyclinE, 3100 nM; against cdc2/cyclinB it was 2000 nM.

With `O=c1ccc2cnc(Nc3ccc(OC(F)(F)F)cc3)nc2n1CC1CC1` [Example 591, 8-Cyclopropylmethyl-2-(4-trifluoromethoxy-phenylamino)-8H-pyrido[2,3-d]pyrimidin-7-one], the IC50 on cdk4/D amounted to 210 nM; at Cdk5/p25, 140 nM; against cdk2/cyclinE, 1800 nM; against cdc2/cyclinB, 3900 nM.

Consider `O=c1ccc2cnc(Nc3ccc4[nH]ncc4c3)nc2n1CC(F)(F)F` [Example 594, 2-(1H-Indazol-5-ylamino)-8-(2,2,2-trifluoro-ethyl)-8H-pyrido[2,3-d]pyrimidin-7-one], for which the IC50 was 555 nM on Cdk5/p25, 1670 nM on cdk2/cyclinE and 1900 nM at cdc2/cyclinB.

`O=c1ccc2cnc(Nc3ccc(O)cc3F)nc2n1CC(F)(F)F` [Example 596, 2-(2-Fluoro-4-hydroxy-phenylamino)-8-(2,2,2-trifluoro-ethyl)-8H-pyrido[2,3-d]pyrimidin-7-one]: the IC50 came out at 720 nM on Cdk5/p25, 1300 nM at cdk2/cyclinE and 1860 nM on cdc2/cyclinB.

`O=c1ccc2cnc(Nc3cccc([N+](=O)[O-])c3)nc2n1CC(F)(F)F` [Example 599, 2-(3-Nitro-phenylamino)-8-(2,2,2-trifluoro-ethyl)-8H-pyrido[2,3-d]pyrimidin-7-one]: the IC50 against Cdk5/p25 came out at 785 nM; against cdk2/cyclinE, 1700 nM; at cdc2/cyclinB, 2350 nM.

Turning to `COc1cc(Nc2ncc3ccc(=O)n(CC(F)(F)F)c3n2)cc(C(F)(F)F)c1` [Example 606, 2-(3-Methoxy-5-trifluoromethyl-phenylamino)-8-(2,2,2-trifluoro-ethyl)-8H-pyrido[2,3-d]pyrimidin-7-one], the IC50 worked out at 3800 nM at cdk4/D, 1800 nM against Cdk5/p25 and 3500 nM against cdc2/cyclinB.

Consider `COc1ccc(Nc2ncc3ccc(=O)n(C)c3n2)cc1OC` [Example 617, 2-(3,4-Dimethoxy-phenylamino)-8-methyl-8H-pyrido[2,3-d]pyrimidin-7-one], for which the IC50 against Cdk5/p25 was determined as 595 nM; at cdk2/cyclinE it was 2900 nM; at cdc2/cyclinB it was 1700 nM.

The record behind these values is US20040224958A1, “Pyridopyrimidinone derivatives for treatment of neurodegenerative disease” (priority 2000, published 2004).
